For test [1], the system named is Adult Bovine Aortic Endothelial (ABAE) cell line. As to the kind of experiment: Antiproliferative activity in ABAE cells, PROTOCOL 2 (48 h, SRB, single well). It counts as cell-based. Particulars: Bos taurus; ABAE cells, 48 h, PROTOCOL 2. The method, then: PROTOCOL 1, 2, and 3 are described in greater detail hereinbelow. In general, according to PROTOCOLS 1 and 2, the target ABAE and/or Human Tumor cells are exposed to the compound of Formula I for 48 hours. PROTOCOL 3 exposes ABAE cell to the compound for 4 days. A detailed description of the protocol is as follows:
Antiproliferative Activity in Human Tumor and Adult Bovine Aortic Endothelial (ABAE) Cell Lines
The antiproliferative activity of the compounds of Formula I is evaluated in a panel comprised of human tumor cell lines and an adult bovine aortic endothelial cell line (ABAE) as listed in PROTOCOL 1. This assay is a modification of PROTOCOL 1. The modifications include:
1) each concentration for each compound is tested in a single well;
2) compounds are tested at 20, 4, 0.8, 0.16 microgram/ml and additionally in some experiments at 100 and 0.32 microgram/ml;
3) samples are pipetted into a 96-well plate for each of the cell lines by a Beckman Biomek 1000 SL robot;
4) after fixing with TCA each well is washed with 0.35 ml distilled water twice, not five times;
5) after staining with sulforhodamine B each well is washed 3 times, not five times;
6) the growth inhibition (I) as % of control, is calculated using the RS-1 data package (BBN Software), for every concentration of drug, as follows: [formula] wherein: T is optical density measurement for treated cells after 48 hours;
C is optical density measurement for untreated cells after 48 hours;
7) IC50 of growth inhibition is determined from graphically from dose response curves, as is known in the art.
Table 1 presents the results depicting the antiproliferative activity of the compounds of Formula I against an Adult Bovine Aortic Endothelial (ABAE) cell line, as evaluated by PROTOCOL 1 and PROTOCOL 2. The results are presented in terms of IC50 and are as follows.

For test [2] the test system is unchanged. As to the kind of experiment: Antiproliferative activity in ABAE cells, PROTOCOL 1 (48 h, SRB). Format: cell-based. As to conditions: Bos taurus. The procedure: PROTOCOL 1, 2, and 3 are described in greater detail hereinbelow. In general, according to PROTOCOLS 1 and 2, the target ABAE and/or Human Tumor cells are exposed to the compound of Formula I for 48 hours. PROTOCOL 3 exposes ABAE cell to the compound for 4 days. A detailed description of the protocol is as follows: Antiproliferative Activity in Human Tumor and Adult Bovine Aortic Endothelial (ABAE) Cell Lines The antiproliferative activity of the compounds of Formula I of the present invention is evaluated in a panel comprised of human tumor cell lines and an adult bovine aortic endothelial cell line (ABAE). […] The number of cells on the plate are quantitated using a protein dye-binding assay (Monks et al., 1991). […] The optical densities are read from an automatic spectrophotometric plate reader (Dynatech) directly to a main frame computer (VAX 8600). […] Mean values and standard errors are determined from duplicate wells. […] The number of cells after treatment (P), as % of control, is calculated for every concentration of drug, as follows: [formula] wherein: T is optical density measurement for treated cells after 48 hours; C is optical density measurement for untreated cells after 48 hours; Co is optical density measurement for cells at the time of drug addition. IC50 of growth inhibition is calculated from the sets of P values using the RS-1 data package (BBN Software). […]

≈ marks a conversion by molar mass, not a printed value.

`CN(C)c1ccc(O)c2c1C[C@H]1C[C@H]3[C@H](N(C)C)C(O)=C(C(N)=O)C(=O)[C@@]3(O)C(O)=C1C2=O` [Minocycline, reference compound]: the figures for the IC50 in test [1] and in test [2] were at least 20 µg/mL and 6.8 µg/mL (≈ 14.9 µM), respectively.

The values are drawn from US5563130A, “Methods for inhibiting angiogenesis, proliferation of endothelial or tumor cells and tumor growth” (American Cyanamid Company, priority 1994, dated 1996).
